Counter-ions that a name gives are not always drawn.
Columns and labels:
[1] = target: T1, glutathione S-transferase (GST)-linked full-length human Syk protein (Homo sapiens, UniProt P43405); test: Syk enzyme assay; type: biochemical; conditions: 0.83 nM Syk, time-resolved fluorescence; read-out: IC50 of Syk-inhibitory activity
T1 construct: glutathione S-transferase (GST)-linked full-length human Syk protein; purchased Carna Biosciences; host or cells: Baculovirus expression system
Method in brief: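 Phosphotyrosine on a biotin-peptide substrate (0.5 μM) was read by time-resolved fluorescence at 615 and 665 nm with Eu-anti-pTyr antibody and APC-streptavidin after 1 h EDTA stop.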

[2] = test system: THP-1 cells (TNFα secretion on human IgG-coated plate); test: TNFα generation assay; type: cell-based; conditions: IFN-γ differentiated THP-1 cells, 7 hours, AlphaLISA, read-out: IC50 of TNFα generation inhibitory activity
Method in brief: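 Secreted TNFα was measured by AlphaLISA after 7 h of culture on human IgG-coated wells (coating at 10 μg/ml), with 5×10^4 cells/well. Before plating, the cells had been treated with compound for 30 min at room temperature. The cells were macrophage-like THP-1, produced by a 2-day exposure to 10 ng/ml IFN-γ.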

[3] = test system: THP-1 cells (phagocytosis of opsonized Escherichia coli); test: Antibody-dependent phagocytosis assay; type: cell-based; conditions: Homo sapiens; IFNγ differentiated THP-1 cells, opsonized pHrodo Escherichia coli, 3 hours; read-out: IC50 upon phagocytosis inhibition
Method in brief: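 Read-out was imaging-based quantification of pHrodo-labeled, antibody-opsonized E. coli taken up by Calcein AM-stained viable cells after 3 h at 37° C. The cells were IFNγ-differentiated THP-1 macrophages (10 ng/ml, 2 days), preincubated with compound for 30 min at room temperature.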

[4] = test system: rat type II collagen arthritis; test: Rat type II collagen-induced arthritis; type: in vivo; conditions: female Lewis rats, oral administration 10 mg/kg/day, Day 7 to Day 20 once daily, Student's t-test
Method: The compounds were tested to examine effects upon rat type II collagen arthritis. Equivalent volumes of 0.05 mol/L acetic acid in which a 3 mg/mL bovine type II collagen solution (Collagen Gijutsu Kenshu-Kai) had been dissolved and Freund's incomplete adjuvant (Wako Pure Chemical Industries, Ltd.) were mixed to prepare an emulsion. A portion of the emulsion (0.5 ml) was intradermally injected into the tail bases of 6- to 8-week-old female Lewis rats (Charles River Laboratories Japan, Inc.) (Day 0). Each rat was subjected to the same treatment on Day 7 after the initial inoculation so as to induce arthritis. Each test compound was orally administered from Day 7 to Day 20 once daily. At a given time during the period from Day 7 to Day 21, the rat hindlimb volume was determined using a plethysmometer (UGO BASILE), and the result was designated as an arthritis index.

[5] = test system: mouse thrombocytopenia induced by anti-mouse CD41 antibody; test: Mouse thrombocytopenia model; type: in vivo; conditions: Platelet, female BALB/c mice, 50 mg/kg 1 hour before anti-CD41 antibody, blood sampling 4 hours after antibody, read-out: improvement of platelet count compared with the control group
Method: Test compounds were tested to examine effects upon mouse thrombocytopenia. Each test compound (50 mg/kg) was administered to 5- to 7-week-old female BALB/c mice (Charles River Laboratories Japan, Inc.). One hour thereafter, an anti-mouse CD41 ([…]) antibody (SCB) (1 μg (200 μl)) was intravenously administered to each mouse so as to induce thrombocytopenia. Four hours after administration of the anti-CD41 antibody, blood sampling from the postcava was performed. The platelet count was determined using an automated hematology analyzer.

[6] = test system: 191 types of kinases excluding Syk; test: Selectivity of kinase inhibition (Profiler Pro kits); type: biochemical; conditions: test compound 100 nM; 191 kinases excluding Syk
Method: The concentrations of test compounds were adjusted to 100 nM. The test compounds were examined using Profiler Pro kits (Caliper) in terms of activity against each of 191 types of kinases excluding Syk.

Row | Structure (SMILES) | IC50 [1] | IC50 [2] | IC50 [3] | hindlimb swelling on Day 20 compared with the control group [4] | change in vivo at 50 mg/kg [5] | number of kinases other than Syk with kinase inhibitory rate of 75% or more [6]
1 | CN(C)c1nn(C)c2ccc(Nc3nc(N[C@@H]4CCCC[C@@H]4N)c(F)cc3C(N)=O)cc12 [Example 2-1, 6-(((1R,2S)-2-aminocyclohexyl)amino)-2-((3-(dimethylamino)-1-methyl-1H-indazol-5-yl)amino)-5-fluoronicotinamide] | < 10 nM | 65 to 130 nM | < 1000 nM | significantly inhibited hindlimb swelling | ≥ 50% | 
2 | C[C@H](N)[C@H](Nc1nc(Nc2cnc(N3CCOCC3)c(F)c2)c(C(N)=O)cc1F)C1CC1 [Example 2-76, 6-(((1R,2S)-2-amino-1-cyclopropylpropyl)amino)-5-fluoro-2-((5-fluoro-6-morpholinopyridin-3-yl)amino)nicotinamide] | 10 to 50 nM | 130 to 200 nM | 1000 to 3000 nM | significantly inhibited hindlimb swelling | ≥ 50% | 8 types of kinases
3 | CN(C)c1nn(C)c2c(F)cc(Nc3nc(N[C@@H]4CCCC[C@@H]4N)c(F)cc3C(N)=O)cc12 [Example 2-184, 6-(((1R,2S)-2-aminocyclohexyl)amino)-2-((3-(dimethylamino)-7-fluoro-1-methyl-1H-indazole-5-yl)amino)-5-fluoronicotinamide hydrochloride] | < 10 nM | 65 to 130 nM | < 1000 nM | significantly inhibited hindlimb swelling | ≥ 50% | 

Reference: patent US9051310B2, “Nicotinamide derivative or salt thereof” (FUJIFILM Corporation, priority 2011, dated 2015)
